# Data reported in patent publication US6537986B2, “Oxazolidinone antibacterial agents having a thiocarbonyl funtionality” (Pharmacia & Upjohn Company, priority 1997, dated 2003).
# Where two headings read alike, the source gives them in different places.
# Experiments:
# [1] = tested on: Enterococcus faecalis (EFAE 9217); assay: MIC, standard agar dilution method; assay type: cell-based; conditions: Table II, key: Enterococcus faecalis, Mueller Hinton agar, incubated overnight at 35° C.; for MIC: read-out: EFAE 9217 MIC
# Method: (§1) MIC Test Method The in vitro MICs of test compounds were determined by a standard agar dilution method. […] Serial 2-fold dilutions of each sample are made using 1.0 ml aliquots of sterile distilled water. To each 1.0 ml aliquot of drug is added 9 ml of molten Mueller Hinton agar medium. The drug-supplemented agar is mixed, poured into 15×100 mm petri dishes, and allowed to solidify and dry prior to inoculation. Vials of each of the test organisms are maintained frozen in the vapor phase of a liquid nitrogen freezer. Test cultures are grown overnight at 35° C. on the medium appropriate for the organism. Colonies are harvested with a sterile swab, and cell suspensions are prepared in Trypticase Soy broth (TSB) to equal the turbidity of a 0.5 McFarland standard. A 1:20 dilution of each suspension is made in TSB. […] The plates are incubated overnight at 35° C. Following incubation the Minimum Inhibitory Concentration (MIC μg/ml), the lowest concentration of drug that inhibits visible growth of the organism, is read and recorded.
# [2] = tested on: S. pyogenes (SPYO 152); assay: MIC, standard agar dilution method; assay type: cell-based; conditions: Table II, Mueller Hinton agar, incubated overnight at 35° C.; for MIC: Streptococcus pyogenes, read-out: SPYO 152 MIC
# Method: as §1
# [3] = tested on: S. aureus (SAUR 9213); assay: MIC, standard agar dilution method; assay type: cell-based; conditions: Table II, Mueller Hinton agar, incubated overnight at 35° C.; for MIC: Staphylococcus aureus, read-out: SAUR 9213 MIC
# Method: as §1
# [4] = tested on: Haemophilus influenzae (HINF 30063); assay: MIC, standard agar dilution method; assay type: cell-based; conditions: Table II, Mueller Hinton agar, incubated overnight at 35° C.; for MIC: Haemophilus influenzae
# Method: as §1
# [5] = tested on: E. Faecium (EFAE 12712); assay: MIC, standard agar dilution method; assay type: cell-based; conditions: for MIC: Enterococcus faecium, read-out: EFAE 12712 MIC
# Method: as §1
# [6] = tested on: S. pneumoniae (SPNE 9912); assay: MIC, standard agar dilution method; assay type: cell-based; conditions: Table II, Mueller Hinton agar, incubated overnight at 35° C.; for MIC: Streptococcus pneumoniae, read-out: SPNE 9912 MIC
# Method: as §1
# [7] = tested on: S. epidermidis (SEPI 30593); assay: MIC, standard agar dilution method; assay type: cell-based; conditions: Table II, Mueller Hinton agar, incubated overnight at 35° C.; for MIC: Staphylococcus epidermidis
# Method: as §1
# [8] = tested on: Moraxella catarrhalis (MCAT 30610); assay: MIC, standard agar dilution method; assay type: cell-based; conditions: Table II, Mueller Hinton agar, incubated overnight at 35° C.; for MIC: Moraxella catarrhalis
# Method: as §1
# [9] = Table II, key: E. Faecium, agar dilution, Mueller Hinton agar, incubated overnight at 35° C.
smiles,measurement,setting,value
"O=C1O[C@@H](CNC(=S)C(F)(F)F)CN1c1ccc(N2CCOCC2)c(F)c1 [Example 16, (S)-N-[[3-[3-Fluoro-4-(4-moropholinyl)phenyl]-2-oxo-5-oxazolidinyl]methyl]-α,α,α-trifluorothioacetamide]",MIC,[1],16 µg/mL
same,MIC,[2],8 µg/mL
same,MIC,[3],8 µg/mL
same,MIC,[4],> 64 µg/mL
same,MIC,[5]; [9],16 µg/mL
same,MIC,[6],2 µg/mL
same,MIC,[7],8 µg/mL
same,MIC,[8],32 µg/mL
same,melting point,,151 to 152 °C
"CC(=S)NC[C@H]1CN(c2ccc(N3CCCSCC3)cc2)C(=O)O1 [Example 534, (5S)-N-[[3-[4-(Tetrahydro-1,4-thiazepin-4(5H)-yl)phenyl]-2-oxo-5-oxazolidinyl]methyl]thioacetamide]",melting point,,129 to 131 °C
"NC(=S)NC[C@H]1CN(c2ccc(C3CCS(=O)(=O)CC3)c(F)c2)C(=O)O1 [Example 12, (S)-N-[[3-[3-Fluoro-4-(tetrahydro-1,1-dioxido-2H-thiopyran-4-yl)phenyl]-2-oxo-5-oxazolidinyl]methyl]thiourea]",MIC,[1],0.5 µg/mL
same,MIC,[2],< 0.125 µg/mL
same,MIC,[3],1 µg/mL
same,MIC,[4],1 µg/mL
same,MIC,[5]; [9],0.25 µg/mL
same,MIC,[6],< 0.125 µg/mL
same,MIC,[7],0.5 µg/mL
same,MIC,[8],0.5 µg/mL
"O=C1O[C@@H](CNC(=S)CCl)CN1c1ccc(N2CCOCC2)c(F)c1 [Example 15, (S)-N-[[3-[3-Fluoro-4-(4-morpholinyl)phenyl]-2-oxo-5-oxrazolidinyl]methyl]-2-chlorotlioacetamide]",MIC,[1],32 µg/mL
same,MIC,[2],8 µg/mL
same,MIC,[3],32 µg/mL
same,MIC,[4],> 64 µg/mL
same,MIC,[5]; [9],32 µg/mL
same,MIC,[6],4 µg/mL
same,MIC,[7],16 µg/mL
same,MIC,[8],64 µg/mL
CSC(=S)NC[C@H]1CN(c2ccc(N3CCOCC3)c(F)c2)C(=O)O1 [Example 34],EFAE 9217 MIC,[1],2 µg/mL
same,SPYO 152 MIC,[2],1 µg/mL
same,SAUR 9213 MIC,[3],2 µg/mL
same,HINF 30063 MIC,[4],>16 µg/mL
same,EFAE 12712 MIC,[5]; [9],2 µg/mL
same,SPNE 9912 MIC,[6],0.5 µg/mL
same,SEPI 30593 MIC,[7],1 µg/mL
same,MCAT 30610 MIC,[8],4 µg/mL
"CCC(=S)NC[C@H]1CN(c2ccc(N3CCOCC3)c(F)c2)C(=O)O1 [Example 14, (S)-N-[[3-[3-Fluoro-4-(4-morpholinyl)phenyl]-2-oxo-5-oxazolidinyl]methyl]thiopropion-amide]",MIC,[1],1 µg/mL
same,MIC,[2],0.5 µg/mL
same,MIC,[3],1 µg/mL
same,MIC,[4],8 µg/mL
same,MIC,[5]; [9],1 µg/mL
same,MIC,[6],0.25 µg/mL
same,MIC,[7],0.5 µg/mL
same,MIC,[8],1 µg/mL
same,melting point,,138 to 139 °C
"CC(=S)NC[C@H]1CN(c2ccc(N3CCS(=O)(=O)CC3)c(F)c2)C(=O)O1 [Example 28, (S)-N-[[3-[3-Fluoro-4-(4-thiomorpholinyl)phenyl]-2-oxo-5-oxazolidinyl]methyl]thio-acetamide, thiomorpholine S, S-dioxide]",EFAE 9217 MIC,[1],0.5 µg/mL
same,SPYO 152 MIC,[2],0.25 µg/mL
same,SAUR 9213 MIC,[3],0.5 µg/mL
same,HINF 30063 MIC,[4],2 µg/mL
same,EFAE 12712 MIC,[5]; [9],0.5 µg/mL
same,SPNE 9912 MIC,[6],0.25 µg/mL
same,SEPI 30593 MIC,[7],0.25 µg/mL
same,MCAT 30610 MIC,[8],1 µg/mL
"CC(=S)NC[C@H]1CN(c2ccc([C@H]3CC[S@+]([O-])CC3)c(F)c2)C(=O)O1 [Example 9, (S)-trans-N-[[3-[3-Fluoro-4-(tetrahydro-1-oxido-2H-thiopyran-4-yl)phenyl]-2-oxo-5-oxazolidinyl]methyl]ethanethioamide]",MIC,[1],0.25 µg/mL
same,MIC,[2],< 0.125 µg/mL
same,MIC,[3],0.5 µg/mL
same,MIC,[4],2 µg/mL
same,MIC,[5]; [9],0.25 µg/mL
same,MIC,[6],< 0.125 µg/mL
same,MIC,[7],0.25 µg/mL
same,MIC,[8],0.5 µg/mL
CC(=S)NC[C@H]1CN(c2ccc(-n3cncn3)c(F)c2)C(=O)O1 [Example 22],MIC,[1],1 µg/mL
same,MIC,[2],0.25 µg/mL
same,MIC,[3],0.5 µg/mL
same,MIC,[4],4 µg/mL
same,MIC,[5]; [9],1 µg/mL
same,MIC,[6],< 0.125 µg/mL
same,MIC,[7],0.5 µg/mL
same,MIC,[8],2 µg/mL
"CC(=S)NC[C@H]1CN(c2ccc([C@H]3CC[S@@+]([O-])CC3)c(F)c2)C(=O)O1 [Example 7, (S)-cis-N-[[3-[3-Fluoro-4-(tetrahydro-1-oxido-2H-thiopyran-4-yl)phenyl]-2-oxo-5-oxazolidinyl]methyl]ethanethioamide]",MIC,[1],0.5 µg/mL
same,MIC,[2],0.25 µg/mL
same,MIC,[3],0.5 µg/mL
same,MIC,[4],4 µg/mL
same,MIC,[5],0.5 µg/mL
same,MIC,[6],< 0.125 µg/mL
same,MIC,[7],0.25 µg/mL
same,MIC,[8],1 µg/mL
"NC(=S)NC[C@H]1CN(c2ccc([C@H]3CC[S@@+]([O-])CC3)c(F)c2)C(=O)O1 [Example 8, (S)-cis-[[3-[3-Fluoro-4-(tetrahydro-1-oxido-2H-thiopyran-4-yl)phenyl]-2-oxo-5-oxazolidinyl]methyl]thiourea]",MIC,[1],1 µg/mL
same,MIC,[2],0.25 µg/mL
same,MIC,[3],2 µg/mL
same,MIC,[4],4 µg/mL
same,MIC,[5]; [9],0.5 µg/mL
same,MIC,[6],< 0.125 µg/mL
same,MIC,[7],1 µg/mL
same,MIC,[8],2 µg/mL
"N#CCC(=S)NC[C@H]1CN(c2ccc(N3CCOCC3)c(F)c2)C(=O)O1 [Example 19, (S)-N-[[3-[3-Fluoro-4-(4-morpholinyl)phenyl]-2-oxo-5-10 oxazolidinyl]methyl]-α-eyanothioacetamnide]",EFAE 9217 MIC,[1],32 µg/mL
same,SPYO 152 MIC,[2],16 µg/mL
same,SAUR 9213 MIC,[3],32 µg/mL
same,HINF 30063 MIC,[4],64 µg/mL
same,EFAE 12712 MIC,[5]; [9],32 µg/mL
same,SPNE 9912 MIC,[6],16 µg/mL
same,SEPI 30593 MIC,[7],16 µg/mL
same,MCAT 30610 MIC,[8],32 µg/mL
"NC(=S)NC[C@H]1CN(c2ccc(C3CC[S+]([O-])CC3)c(F)c2)C(=O)O1 (stereo partly drawn) [Example 10, (S)-trans-[[3-[3-Fluoro-4-(tetrahydro-1-oxido-2H-thiopyran4-yl)phenyl]-2-oxo-5-oxazolidinyl]methyl]thiourea]",MIC,[1],1 µg/mL
same,MIC,[2],0.25 µg/mL
same,MIC,[3],2 µg/mL
same,MIC,[4],2 µg/mL
same,MIC,[5]; [9],0.5 µg/mL
same,MIC,[6],< 0.125 µg/mL
same,MIC,[7],1 µg/mL
same,MIC,[8],1 µg/mL
COC(=S)NC[C@H]1CN(c2ccc(N3CCOCC3)c(F)c2)C(=O)O1 [Example 35],EFAE 9217 MIC,[1],1 µg/mL
same,SPYO 152 MIC,[2],0.5 µg/mL
same,SAUR 9213 MIC,[3],1 µg/mL
same,HINF 30063 MIC,[4],16 µg/mL
same,EFAE 12712 MIC,[5]; [9],1 µg/mL
same,SPNE 9912 MIC,[6],0.25 µg/mL
same,SEPI 30593 MIC,[7],0.5 µg/mL
same,MCAT 30610 MIC,[8],2 µg/mL
"CC(=S)NC[C@H]1CN(c2ccc(C3CCS(=O)(=O)CC3)c(F)c2)C(=O)O1 [Example 11, (S)-N-[[3-[3-Fluoro-4-(tetrahydro-1,1-dioxido-2H-thiopyran-4-yl)phenyl]-2-oxo-5-oxazolidinyl]methyl]ethanethioamide]",MIC,[1],0.25 µg/mL
same,MIC,[2],0.25 µg/mL
same,MIC,[3],0.25 µg/mL
same,MIC,[4],2 µg/mL
same,MIC,[5]; [9],0.25 µg/mL
same,MIC,[6],< 0.125 µg/mL
same,MIC,[7],0.25 µg/mL
same,MIC,[8],1 µg/mL
"COC(=S)NC[C@H]1CN(c2ccc(N3CC[S+]([O-])CC3)c(F)c2)C(=O)O1 [Example 100, (S)-N-[[3-[3-Fluoro-4-(4-thiomorpholinyl)phenyl]-2-oxo-5-oxazolidinyl]methyl]-O-methylthiocarbamate, thiomorpholine S-oxide]",melting point,,208 to 209 °C
